Measured values as given in article PMC6792352, “Limited Chemical Structural Diversity Found to Modulate Thyroid Hormone Receptor in the Tox21 Chemical Library” (Environmental Health Perspectives, 2019).
Where a name gives a salt, the structure may show the parent alone.

Experiment: in vitro
Details: rat, gh3-tre-luc cells

Structure (SMILES)	CC50 at 24 h (AC50 (uM) modified / 1000)	other results
CC1(C)[C@H]2CC[C@]1(C)[C@H](O)C2 [[(1S)-endo]-(-)-Borneol]	> 90 µM	–
CCCCOC(=O)[C@@H](C)Oc1ccc(Oc2ccc(C(F)(F)F)cn2)cc1 [Fluazifop-P-butyl]	> 90 µM	–
CCOC(=O)[C@H](CCc1ccccc1)N[C@@H](C)C(=O)N1CCC[C@H]1C(=O)O [Enalapril]	> 50 µM	–
CCCCC(CC)COP(=O)(O)OCC(CC)CCCC (stereo not drawn) [Bis(2-ethylhexyl) phosphate]	63.4 µM	–
CCN(CC)C(=O)[C@@H]1C=C2c3cccc4[nH]cc(c34)C[C@H]2N(C)C1 [Lysergide]	–	CC50 at 24 h (AC50 (uM) modified / 1000, Tox21_110001=Tox21_112872, viability, 1 nM T3 present, 24 h): > 200 µM; CC50 at 24 h (AC50 (uM) modified / 1000, Tox21_110001=Tox21_113508, viability, 1 nM T3 present, 24 h): > 50 µM
Oc1ccccc1Cc1ccccc1O [2,2'-Bisphenol F]	> 90 µM	–
O=C(O)Cn1c(=O)n(Cc2ccc(Br)cc2F)c(=O)c2ccc(Cl)cc21 [Zenarestat]	> 90 µM	–
O=C(O)CNC(=O)c1ccccc1I [2-Iodohippuric acid]	> 50 µM	–
O=C(O)C1=C(CSc2nnnn2CS(=O)(=O)O)CS[C@@H]2[C@H](NC(=O)[C@H](O)c3ccccc3)C(=O)N12 [Cefonicid sodium]	> 50 µM	–
ClCc1ccccc1Cl [2-Chlorobenzyl chloride]	–	CC50 at 24 h (AC50 (uM) modified / 1000, Tox21_110001=Tox21_201089, viability, 1 nM T3 present, 24 h): > 90 µM
CC(=O)OC(c1ccccc1)C(Cl)(Cl)Cl (stereo not drawn) [2,2,2-Trichloro-1-phenylethyl acetate]	> 90 µM	–
CCCC(C)(COC(N)=O)COC(=O)NC1CC1 (stereo not drawn) [Lorbamate]	–	CC50 at 24 h (AC50 (uM) modified / 1000, Tox21_110001=Tox21_111921, viability, 1 nM T3 present, 24 h): > 50 µM
COc1ccc2c3c1O[C@H]1C[C@@H](O)C=C[C@@]31CCN(C)C2 [Galanthamine]	> 50 µM	–
O=C(CCl)CCl [1,3-Dichloropropanone]	–	CC50 at 24 h (AC50 (uM) modified / 1000, Tox21_110001=Tox21_201433, viability, 1 nM T3 present, 24 h): 32.6 µM; CC50 at 24 h (AC50 (uM) modified / 1000, Tox21_110001=Tox21_302809, viability, 1 nM T3 present, 24 h): 27.3 µM
CC(C)(Oc1ccc(Cl)cc1)C(=O)O [Clofibric acid]	> 50 µM	–
CCCCCC [n-Hexane]	> 90 µM	–
CCn1nc(C)c2c1C(=O)NCC(c1ccc(O)cc1)=N2 [PharmaGSID_47263]	> 90 µM	–
CC[C@H](C)[C@H]1O[C@]2(C=C[C@@H]1C)C[C@@H]1C[C@@H](C/C=C(\C)[C@@H](O[C@H]3C[C@H](OC)[C@@H](O[C@H]4C[C@H](OC)[C@@H](NC)[C@H](C)O4)[C@H](C)O3)[C@@H](C)/C=C/C=C3\CO[C@@H]4[C@H](O)C(C)=C[C@@H](C(=O)O1)[C@]34O)O2 [Emamectin benzoate]	–	CC50 at 24 h (AC50 (uM) modified / 1000, Tox21_110001=Tox21_300787, viability, 1 nM T3 present, 24 h): 1.42 µM
c1ccc(NNc2ccccc2)cc1 [1,2-Diphenylhydrazine]	–	CC50 at 24 h (AC50 (uM) modified / 1000, Tox21_110001=Tox21_202323, viability, 1 nM T3 present, 24 h): > 90 µM; CC50 at 24 h (AC50 (uM) modified / 1000, Tox21_110001=Tox21_300492, viability, 1 nM T3 present, 24 h): 67.9 µM
c1ccc2c(c1)-c1cccc3cccc-2c13 [Fluoranthene]	> 90 µM	–

Structure (SMILES)	CC50 at 24 h (AC50 (uM) modified / 1000)	other results
O=C(O[C@@H]1C[C@@H]2C[C@H]3C[C@H](C1)N2CC3=O)c1c[nH]c2ccccc12 [Dolasetron mesylate]	37.3 µM	–
CCCCCCC(CO)CCCC (stereo not drawn) [2-Butyloctan-1-ol]	> 90 µM	–
S=C=NCCc1ccccc1 [Phenethyl isothiocyanate]	79.7 µM	–
COP(=S)(OC)Oc1ccc([N+](=O)[O-])c(C)c1 [Fenitrothion]	> 90 µM	–
O=C(NCCCN1CCOCC1)c1ccc(Cl)cc1 [Eprobemide]	> 50 µM	–
Cc1ccc(S(=O)(=O)O)cc1 [4-Methylbenzenesulfonic acid]	> 90 µM	–
CCc1cccc(C)c1 [3-Ethyltoluene]	> 90 µM	–
CN(C)CCCCl [Dimethylaminopropyl chloride hydrochloride]	> 100 µM	–
CN1CC(=O)N2[C@H](c3ccc4c(c3)OCO4)c3[nH]c4ccccc4c3C[C@@H]2C1=O [Tadalafil]	> 50 µM	–
COc1cc2nc(N3CCN(C(=O)C4COc5ccccc5O4)CC3)nc(N)c2cc1OC (stereo not drawn) [Doxazosin mesylate]	25.4 µM	–
CCCCC(CC)C(=O)OCCOCCOCCOC(=O)C(CC)CCCC (stereo not drawn) [Triethylene glycol bis(2-ethylhexanoate)]	> 90 µM	–
CCCCCSCCCCC [Pentyl sulfide]	> 90 µM	–
OCCOCCOCCO [Triethylene glycol]	> 100 µM	–
C[C@H](CCC(=O)O)[C@H]1CC[C@H]2[C@@H]3C(=O)C[C@@H]4CC(=O)CC[C@]4(C)[C@H]3CC(=O)[C@]12C [Dehydrocholic acid]	> 50 µM	–
O=C1OC(=O)C2C3C=CC(C3)C12 (stereo not drawn) [2-Norbornene-5,6-dicarboxylic anhydride]	> 90 µM	–
CNCCC=C1c2ccccc2CCc2ccccc21 [Nortriptyline hydrochloride]	12.6 µM	–
CCSC(=O)N(CC)CC [Ethiolate]	> 90 µM	–
N[C@@H](COP(=O)(O)O)C(=O)O [Dexfosfoserine]	> 50 µM	–
Nc1nc(Cl)nc2c1ncn2[C@@H]1O[C@H](CO)[C@@H](O)[C@@H]1F [Clofarabine]	0.263 µM	–
CCCCCCCCCCOc1cc2c(O)c(C(=O)OCC)cnc2cc1OCC [Decoquinate]	> 50 µM	–

Structure (SMILES)	CC50 at 24 h (AC50 (uM) modified / 1000)	other results
C=C[C@]1(C)C[C@@H](OC(=O)CO)[C@]2(C)[C@H](C)CC[C@]3(CCC(=O)[C@H]32)[C@@H](C)[C@@H]1O [Pleuromutilin]	> 50 µM	–
CCCCN1CCCC1C(=O)Nc1c(C)cc(C)cc1C (stereo not drawn) [Bumecaine]	> 50 µM	–
CCCCCCCC(=O)Cl [Caprylyl chloride]	> 90 µM	–
CCOc1cc(N)c(Cl)cc1C(=O)NCC1CN(Cc2ccc(F)cc2)CCO1 (stereo not drawn) [Mosapride citrate]	> 50 µM	–
C=CC1CO1 (stereo not drawn) [1,2-Epoxy-3-butene]	> 100 µM	–
C[C@@H](C1=C(CCN(C)C)Cc2ccccc21)c1ccccn1 [(S)-(+)-Dimethindene maleate]	42.1 µM	–
C=CC(C)(CCC=C(C)C)OC=O (stereo not drawn) [Linalyl formate]	> 90 µM	–
CC(C)CO [2-Methyl-1-propanol]	> 90 µM	–
O=C1c2c(O)ccc([N+](=O)[O-])c2C(=O)c2c([N+](=O)[O-])ccc(O)c21 [1,8-Dihydroxy-4,5-dinitroanthraquinone]	8.27 µM	–
CC(=O)OCC(=O)[C@@]12OC(C)(C)O[C@@H]1C[C@H]1[C@@H]3C[C@H](F)C4=CC(=O)C=C[C@]4(C)[C@@]3(F)[C@@H](O)C[C@@]12C [Fluocinonide]	> 20 µM	–
N#CSCSC#N [Methylene bis(thiocyanate)]	–	CC50 at 24 h (AC50 (uM) modified / 1000, Tox21_110001=Tox21_202325, viability, 1 nM T3 present, 24 h): 3.41 µM; CC50 at 24 h (AC50 (uM) modified / 1000, Tox21_110001=Tox21_301058, viability, 1 nM T3 present, 24 h): 5.63 µM
CO[C@@H]1[C@@H](O[C@@H]2O[C@H](C)[C@@H](O[C@H]3C[C@@](C)(O)[C@@H](OC(=O)CC(C)C)[C@H](C)O3)[C@H](N(C)C)[C@H]2O)[C@@H](CC=O)C[C@@H](C)C(=O)/C=C/[C@@H]2O[C@H]2C[C@@H](C)OC(=O)C[C@H]1OC(C)=O [Carbomycin A]	34.1 µM	–
O=C(Nc1ccccc1)c1cc(Cl)ccc1O [5-Chlorosalicylanilide]	7.85 µM	–
COC(=O)c1ccc(O)cc1 [Methylparaben]	> 90 µM	–
CC[C@@H](C(=O)[C@@H](C)[C@@H](O)[C@H](C)CCc1ccc(C)c(O)c1C(=O)O)[C@H]1O[C@](CC)([C@H]2CC[C@](O)(CC)[C@H](C)O2)C[C@@H]1C [Lasalocid sodium]	2.85 µM	–
O=C1/C(=C/c2cccs2)CCC/C1=C\c1cccs1 [Tenylidone]	> 50 µM	–
CN(C)[C@@H]1C(O)=C(C(N)=O)C(=O)[C@@]2(O)C(O)=C3C(=O)c4c(O)cccc4[C@@](C)(O)[C@H]3C[C@@H]12 [Tetracycline]	> 90 µM	–
COc1nc(N)nc2c1ncn2[C@@H]1O[C@H](CO)[C@@H](O)[C@@H]1O [Nelarabine]	> 50 µM	–
N[C@H](CO)C(=O)O [D-Serine]	> 50 µM	–
